How the values were obtained:
human islets [1] = assay: Viability by fluorescent membrane integrity assay (syto green/ethidium bromide); format: cell-based; conditions: 24 h ± AAGP then 24 hr tacrolimus 10 ng/mL
Description: After 24 hr of culture, islets are assessed for recovery, viability and function. Recovery rate is calculated as the percentage of surviving islets after 24 hr culture in comparison to the initial count for each condition. Viability is assessed using a fluorescent membrane integrity assay with counter-stains syto green/ethidium bromide (Cedarlane Laboratories, Burlington, ON, and Sigma-Aldrich, ON) (Islet isolation for clinical transplantation. In: Shahidul. M, (ed). The islets of Langerhans. New York: Springer, 2010; Ranuncoli A, et al. Cell transplantation 2000; 9(3):409-414; Ricordi C. et al. Acta diabetologica latina 1990; 27(3):185-195; and Barnett M J et al. Cell transplantation 2004; 13(5):481-488).

human islets [2] = assay: Glucose-stimulated insulin secretion (GSIS) perifusion assay; format: cell-based; conditions: 24 h ± AAGP then 24 hr tacrolimus 10 ng/mL; Tac− 158.8
Description: Islet secretory function is assessed by monitoring in vitro insulin secretory profile during continuous glucose stimulation, as described by Cabrera et al Cell transplantation 2008;16(10):1039-1048. This in vitro perifusion assay is a modality of continuous Glucose-Stimulated Insulin Secretion (GSIS) test to stress islets in alternating normoglycemic and hyperglycemic environment to model physiological islet response. Supernatants from the perifusion assay are collected and insulin levels are determined using a commercially available ELISA kit (Insulin ELISA kit. Mercodia Inc. Pittsburgh, PA, USA). Results are expressed as fold-change of insulin secretion compared to the low (2.8 mMol) glucose stimulation baseline, normalized for 100 IEQ.

mouse splenocytes = assay: Allogeneic mixed lymphocyte reaction, T cell proliferation by CFSE staining; format: cell-based; conditions: vs IgG control, n=4
Text: The assay measures T cell proliferative response by levels of CFSE staining.

human islets [3] = assay: Capacitance measurement as indicator of exocytosis upon high glucose stimulation; format: cell-based
Description: Complementary capacitance studies were performed with these same conditions as an indirect indicator of exocytosis upon high glucose stimulation.

[4] = tested on: human islets transplanted under the kidney capsule; assay: Proinflammatory cytokines and chemokines in homogenized graft 24 h post-transplant; format: in vivo, immunodeficient mice; conditions: 24 h after transplant, 1,000 IEQ, islets cultured with tacrolimus ± AAGP, n=3
Description: After 24 hr exposure to tacrolimus, samples from culture media of all groups are frozen and relevant cytokines and chemokines (IFN-γ, IL-1β, IL-6, IL-10, IL-12, Keratinocyte-derived Chemokine (KC), and TNF-α) are measured using a Multi-Spot Human ProInflammatory 7-Plex Ultra-Sensitive kit (Meso Scale Discovery®, Gaithersburg, MD, USA), analyzed on the SECTOR™ Imager (Meso Scale Discovery®, Gaithersburg, MD, USA). Results are expressed as absolute values (pg/mL), and CMRL culture media alone is used as a control for comparison.
Eight to 12 week immunodeficient mice (B6.129S7-Rag1^tm1Mom) are obtained from the Jackson Laboratory (Bar Harbor, ME, USA) and housed under specific pathogen-free conditions with access to food and water ad libitum. Animals are cared for according to the guidelines of the Canadian Council on Animal Care, and ethical approval is obtained from the animal welfare committee at the University of Alberta.
Animals are considered diabetic after two consecutive blood glucose measurements are documented≥18 mmol/L.
Ten animals per group received approximately 1,000 IEQ human islets transplanted under the capsule of the left kidney as described previously (19).
Three mice per group underwent nephrectomy and are euthanized 24 hr post-transplant to perform acute determination of proinflammatory cytokines, cleaved capase-3 and TUNEL in the graft area. In all cases the islet graft is excised from the kidney, weighed, flash frozen in liquid nitrogen and stored at −80° C. Tissue samples are subsequently lysed using 1 ml of lysis buffer (0.15 M NaCl, 1 mM Tris-HCL, 0.1% SDS, 0.1% Triton X-100, 20 mM Sodium deoxycholate, 5 mM EDTA) per 200 mg of tissue. Lysates are then homogenized (PowerGen, Fisher Scientific, ON, Canada) on ice for 30 sec×2 replications, and sonicated (VirSonic, VirTis, NY, USA) with 10 quick pulses while on ice. Cellular debris is pelleted by centrifugation at 14,000 rpm for 10 min at 4° C. and the resulting supernatant is collected and placed in a microcentrifuge tube containing 10 μl of a protease inhibitor cocktail (Sigma-Aldrich Canada Co., Oakville, ON, Canada) per 1 ml of lysate (1:100).
Graft samples are assayed (using the corresponding mouse kit) for pro-inflammatory cytokines/chemokines, caspase-3 and TUNEL staining, as previously described. All determinations are adjusted per gram of tissue.
Further in vivo testing is performed to complement our in vitro findings. Using the same study groups (Tac−, Tac+ and Tac+AAGP™) minimal mass (1,000 IEQ) islet transplants are performed in chemically-induced diabetic immunodeficient mice (n=10 per group). […]

[5] = tested on: syngeneic islet transplant; assay: Syngeneic full mass islet transplant with continuous tacrolimus treatment; format: in vivo, mouse
Text: FIG. 11 illustrates the post-transplant graft function in immunodefficient mice receiving minimal human islet mass (˜1000 IEQ). Islets were previously treated with AAGP™ and tracrolimus accordingly. […] The dotted line indicates graft recovery nephrectomy on day 60. B. Intraperitoneal glucose tolerance test (IPGTT) to evaluate metabolic response after receiving a glucose bolus. C. Insulin content of removed grafts after 60 days of transplant as an indication of residual islet mass. Data points represent mean±SEM adjusted per gram of tissue, (Tac− n=6, Tac+ n=3 and Tac+AAGP™ n=7), *p<0.05, **p<0.01 and ***p<0.001. D and E. Post-transplant graft function in mice receiving syngeneic full mass (˜500 IEQ) islet transplant. AAGP™ was added to the culture media 1 hour prior to transplant and tacrolimus was administered via a subcutaneous osmotic pump (implanted during the same procedure) at a continuous rate of 1 mg/kg/day. D. Pooled blood glucose profiles of animal over 40 days with clear dysfunction for Tac+ islets during the presence of Tac. Vertical dotted line indicates tacrolimus treatment cessation and marks a gradual recovery of Tac+ grafts. Horizontal continuous line at y=11 indicates the normoglycemia limit. Graft recovery nephrectomy was again performed on day 30. E. Mean time-to-euglycemia after transplant showing Tac+AAGP™ mice reversing diabetes earlier (p<0.001, log-rank, Mantel-cox test). […] These differences were not observed in the Tac+AAGP™ group.
To further support these findings a transplant experiment was performed in a syngeneic diabetic mouse transplant model with continuous treatment with tacrolimus to resemble clinical practice.
To make our experiments more clinically relevant, a new in vivo syngeneic mouse transplant model was performed, with tacrolimus as a continuous treatment by means of a subcutaneous osmotic pump. It was observed that the functional impairment of transplanted islets occurred immediately after starting administration of the CNI and lasted during the entire treatment period (7 days).

With C=CC[C@@H]1/C=C(\C)C[C@H](C)C[C@H](OC)[C@H]2O[C@@](O)(C(=O)C(=O)N3CCCC[C@H]3C(=O)O[C@H](/C(C)=C/[C@@H]3CC[C@@H](O)[C@H](OC)C3)[C@H](C)[C@@H](O)CC1=O)[C@H](C)C[C@@H]2OC.O [Tac+, tacrolimus] the “cell viability by membrane integrity stain” value (human islets [1]) was “no difference in cell viability”, the “GSIS perifusion AUC” value (human islets [2]) was 8.22 and the “T cell proliferation (CD8+ and CD4+)” value (mouse splenocytes) was “significantly decreased”. For the same compound, the “cumulative capacitance area under the curve” value (human islets [3]) was 39.08, the “IL-1β level in graft” value [4] was 17.81 pg/mL/g-tissue and the “IL-6 level in graft” value [4] was 147.8 pg/mL/g-tissue. For the same compound, the “KC (keratinocyte chemokine) level in graft” value [4] was 9.79 pg/mL/g-tissue, the “TNF-α level in graft” value [4] was 1.63 pg/mL/g-tissue and the “graft function / period to achieve euglycemia” value ([5]; AAGP in culture media 1 hour prior to transplant, tacrolimus 1 mg/kg/day by osmotic pump) was “unable to effectively secrete insulin and return animals to euglycemic state”. For the same compound, the “IPGTT AUC under tacrolimus treatment” value ([5]; initial IPGTT (7 days), tacrolimus 1 mg/kg/day) was 101.
